Test results published in patent publication US12251388B1, “Methods of treating ischemic stroke at risk for cerebral or cerebellar edema” (REMEDY PHARMACEUTICALS, INC., priority 2024, dated 2025).

Test system: large hemispheric infarction (LHI) patients at high risk for cerebral edema
Assay: CHARM trial: mRS score at 90 days, shift analysis on 5-category ordinal scale (0/1 and 5/6 collapsed), intravenous glibenclamide versus placebo
Type: in vivo, human
Conditions: for Common Odds Ratio: mITT population (aged ≤70 years), drug vs placebo
Description: The CHARM trial evaluated the safety and efficacy of intravenous glibenclamide as a treatment for large hemispheric infarction (LHI) patients at high risk for cerebral edema.
Patients meeting the following criteria were included: • A clinical diagnosis of acute ischemic stroke in the middle cerebral artery (MCA) territory. • A large hemispheric infarction defined as; lesion volume of 80 to 300 centimeters cubed (cm^3) on magnetic resonance imaging (MRI) diffusion-weighted imaging (DWI), or computed tomography perfusion (CTP), or an Alberta Stroke Program Early CT Score (ASPECTS) of 1 to 5 with involvement of at least 2 defined cortical regions. • Screening National Institutes of Health Stroke Scale (NIHSS)>=10. • At the time of randomization, and in the Investigator's judgement, it must be feasible for study drug treatment infusion to be initiated no later than 10 hours after time of symptom onset, if known, or the time last known normal. • Participants who wake with stroke may be included if neurological and other exclusion criteria are satisfied. The time of stroke onset is to be taken as the midpoint between sleep onset (or last known to be normal) and time of waking.
Patients meeting the following criteria were excluded: • Participant is likely to have supportive care withdrawn on the first day. • Commitment to decompressive craniectomy (DC) prior to enrollment. • Evidence of concurrent infarction in the contralateral hemisphere sufficiently serious so as to affect functional outcome. Pre-Specified Primary Endpoint
Modified Rankin Scale (mRS) score at 90 days analyzed as a shift analysis using a 5-category ordinal scale with 0/1 and 5/6 collapsed. The primary efficacy analysis was pre-specified to be conducted in participants 18-70 years of age (inclusive) who were randomized and receive study treatment (the modified intent-to-treat [mITT] population].
Five hundred thirty-five subjects were enrolled, with 268 treated with placebo and 267 treated with intravenous glyburide. The mITT population (the primary analysis population), those participants aged≤70 years who received any study drug, consisted of 431 subjects.
An analysis was conducted in the mITT population to examine effects of limits on the NIHSS. […] A common odds ratio of greater than 1 indicates a positive drug effect and in the group having an NIHSS of ≤20, the common odds ratio exceeded 1.7, indicating a robust effect in favor of the drug.

[1] = mRS scores 5 and 6 combined, baseline NIHSS ≥10 and ≤20

SMILES: COc1ccc(Cl)cc1C(=O)NCCc1ccc(S(=O)(=O)NC(=O)NC2CCCCC2)cc1 [intravenous glyburide, glyburide]
- Common Odds Ratio (NIHSS cutoff ≤18, mRS at 90 days, n=197): 2.027
- Common Odds Ratio (NIHSS cutoff ≤19, mRS at 90 days, n=232): 1.846
- Common Odds Ratio (NIHSS cutoff ≤21, mRS at 90 days, n=303): 1.260
- Common Odds Ratio (NIHSS cutoff ≤22, mRS at 90 days, n=328): 1.144
- Common Odds Ratio (NIHSS cutoff ≤23, mRS at 90 days, n=352): 1.142
- lesion volume at the "no effect" level of the treatment effect (mRS) [1]: approximately 140 cm^3
- lesion volume at which a robust treatment effect (mRS) is seen [1]: ≤ 125 cm^3
